Entries after “also recorded” stand apart in the source; their conditions may differ. Read-outs that look alike come from different tables or passages of the source. A value given as a limit tells only on which side of the number the result lay.

For data set [1], the system named is U937 cells. The data set can be described thus: DNA fragmentation in whole cells (release of 3H-labeled DNA fragments, 4 h). It counts as cell-based, human. The following applies: for IC50: Homo sapiens, U-937, 4 h. Here is the method:
(§1) DNA fragmentation in whole cells or normal nuclei isolated from U937 or MCF-7 cells was assayed by release of (3H)thymidine-labeled DNA fragments as described in detail previously (Wright et al. (1994) J. Exp. Med. 180, 2113-2123). DNA fragmentation induced by rADF treatment of isolated nuclei for four h was analyzed by agarose electrophoresis as described in detail previously (Wright et al. (1994) supra). In four h assays using isolated nuclei, the buffer was supplemented with an ATP regenerating system (2 mM ATP, 10 mM phosphocreatine, and 50 μg/ml creatine kinase).

The test system of a further data set is U9-TR. Described as above. It counts as cell-based, human. Particulars: Homo sapiens; U9-TR; 4 hr; read-out: IC50 Value (minimal concentration to cause 50% DNA fragmentation). Here is the method:
as §1
(§2) Another mechanism whereby cancer cells may resist apoptosis is through overexpression of heat shock (HS) proteins which have been found at high levels in most tumor cell biopsies (Jaattela, et al., 1999, Exp Cell Res 248:30-43). […] We have studied the mechanisms of apoptosis resistance using several variants derived from the U937 cell line. Variants generated by prolonged growth in the presence of TNF (U9-TR) or by nutritional depletion of intracellular NAD content (U9-NAD-) have been described in the literature previously (Wright, et al., 1992, Cancer Immunol Immunother 34:399-406; Wright, et al., 1996b, J. Exp. Med. 183: 463-477). Both of these variants were resistant to apoptosis induced by diverse agents, such as chemotherapeutic drugs, UV light, and TNF.

For another data set, the system named is U9-NAD -. The data set is described as above. It counts as cell-based. The following applies: Homo sapiens, read-out: IC50 Value (minimal concentration to cause 50% DNA fragmentation). Here is the method: as §1, §2
The test system of a further data set is HL-60 neo. The data set is described as above. In kind it is cell-based. The following applies: Homo sapiens.
The test system of a further data set is HL-60 Bcl-2. Described as above. It counts as cell-based. The following applies: Homo sapiens.
The test system of data set [2] is U937 cells. As to the kind of experiment: Viability by trypan blue exclusion after 4 h treatment. The following applies: for IC50: Homo sapiens, U-937, trypan blue, 4 h. It counts as cell-based, human.
In the next data set the test system is MES-SA (parental). As to the kind of experiment: 48 h MTT dye reduction assay. In kind it is cell-based. Particulars: Homo sapiens. The text has this:
(§3) One of the most frequently reported alterations associated with multidrug resistance is increased expression of the 170 kDa membrane protein called P-glycoprotein encoded by the MDR1 gene. It functions as an energy-dependent drug efflux pump that reduces intracellular drug accumulation, thereby causing resistance to many structurally unrelated drugs (Roninson, et al., 1986, Proc Natl Acad Sci 83:4538-4542). To determine if MDR1 overexpressing cells were sensitive to rADF, the inventors tested the parental drug-sensitive uterine sarcoma, MES-SA, compared to a variant selected by culturing in doxorubicin, MES-SA/Dx5, described previously (Chen et al., 1997).
For orientation: Tetrazolium dyes change colour on reduction, which living cells bring about.

Another data set concerns MES-SA/Dx5 (MDR1 high). The data set can be described thus: cells. Particulars: 48 h, read-out: IC50 Values.
Source text: as §3

A further data set concerns Hep3B. The data set can be described thus: 48 h MTT dye reduction assay. In kind it is cell-based. Particulars: Homo sapiens. From the text:
(§4) The cytotoxic activity of rADF-Ant was compared to several chemotherapeutic drugs on a panel of three HCC cell lines.
(§5) Without limiting the invention to any particular mechanism, another possible mechanism of resistance is expression of the multidrug resistance associated protein (MRP). This protein is thought to exert a function similar to the p-glycoprotein, and is expressed at high levels in the HepG2 and SK Hep-1 cell lines (Takeuchi, et al., 1999, J Gastroenterol 34:351-358). Increased expression of thioredoxin, which functions as a cellular defense mechanism against oxidative stress, may also protect HCC's from some chemotherapeutic agents (Kawahara, et al., 1996, Cancer Res 56:5330-5333). Expression of different xenobiotic enzymes (e.g. cytochrome P-450 and glutathione S-transferase) may also contribute to the intrinsic drug resistance of HCC (Murray, et al., 1993, Cancer 71:36-43). Additional studies explored whether the high intrinsic levels of drug resistance in the HCC lines can be even further augmented by adherence to ECM protein. Overexpression of b1 integrin and its role in the progression of HCC has been reported (Patriarca, et al., 1993, J Pathol 171:5-11). Overexpression of b1-integrin in several HCC lines (including HepG2) protected them from chemotherapeutic drug-induced apoptosis via a MAP kinase-dependent pathway (Zhang, et al., 2002, Cancer 95:896-906). Knockout of a6b1-integrin expression reversed the transformed phenotype of HepG2 cells (Carloni et al., 1998, Gastroenterology. 115:433-442). […] These properties of HCCs may contribute to the marked changes in amount and distribution of ECM components found in the stroma of HCC as compared to normal liver (Jaskiewicz, et al., 1993, Anticancer Res 13:2229-2238). Thus, the combination of increased expression of integrins in HCCs as well as abnormalities in the surrounding ECM may create an environment that both promotes tumor growth and inhibits apoptosis. Therefore, the inventors tested HepG2 and Hep3B for drug sensitivity when assayed on plates coated with BSA as a control, or on FN as described above for U937 cells.

Another data set has as its system HepG2. The data set can be described thus: 48 h MTT dye reduction assay. It counts as cell-based. The following applies: Homo sapiens.
Source text: as §4, §5

Another data set has as its system SK Hep-1. The data set can be described thus: 48 h MTT dye reduction assay. In kind it is cell-based. Particulars: Homo sapiens, SK-HEP1, read-out: IC50 Values ± SEM (n).
Source text: as §4

In the next data set the test system is isolated U937 nuclei. As to the kind of experiment: DNA fragmentation in isolated nuclei (release of 3H-labeled DNA fragments; agarose gel). In kind it is biochemical, human. Here is the method:
as §1
ADF was purified from 2.9 mg of pig heart mitochondrial MDH obtained from Worthington Enzymes, New Jersey. Protein was fractionated by gel filtration on a Tosohaas G2000SWXL 7.8 mm×300 mm HPLC column, and each fraction tested for DNA fragmentation in isolated U937 nuclei (ADF activity) and for MDH enzyme activity. Active fractions were pooled and applied to a reverse phase C4 Brownlee 2.1 mm×220 mm column equilibrated in H2O+0.0075% trifluoroacetic acid pH 6.5, and eluted with a linear gradient to 40% acetonitrile.
In preliminary studies, the inventors observed that supernatants of normal mitochondria derived from cultured cells or freshly isolated liver cells incubated in vitro contained activity that induced internucleosomal DNA cleavage in isolated U937 nuclei. […] To ascertain that the DNA fragmenting activity of MDH was not due to a contaminating nuclease, the inventors purified the commercial enzyme to determine the source of the ADF activity.
Therefore, it is likely that ADF directly or indirectly activates endonucleases present in isolated nuclei.

For another data set, the system named is isolated MCF-7 nuclei. The data set can be described thus: DNA fragmentation in isolated nuclei (release of 3H-labeled DNA fragments). It counts as biochemical, human. The following applies: nuclei from MCF-7 cells (no caspase 3); four h assay.
Another data set concerns naked DNA. As to the kind of experiment: DNase assay on naked DNA substrate (rADF alone or extracts of rADF-treated U937 nuclei). In kind it is biochemical, human.
Another data set has as its system ICAD/DFF45. As to the kind of experiment: Western blot for ICAD cleavage in rADF-treated nuclei. It counts as biochemical, human. The following applies: U937 nuclei treated with rADF. Background: A western blot detects proteins with antibodies after separation by electrophoresis.
The mark [3] stands for this setting: Hep3B (BSA) plate coating, read-out: IC50 Values.
The mark [4] stands for this setting: Hep3B (FN) plate coating, read-out: IC50 Values.
Setting [5] is: read-out: IC50 Values ± SEM (n).
Where [6] appears, read: HepG2, 48 h, HepG2 (BSA) plate coating, read-out: IC50 Values.
The mark [7] stands for this setting: HepG2, 48 h, HepG2 (FN) plate coating, read-out: IC50 Values.
[8] abbreviates: HepG2, 48 h, HepG2, read-out: IC50 Values ± SEM (n).

For `COc1cc([C@@H]2c3cc4c(cc3[C@@H](O[C@@H]3O[C@@H]5CO[C@@H](C)O[C@H]5[C@H](O)[C@H]3O)[C@H]3COC(=O)[C@H]23)OCO4)cc(OC)c1O` [Etoposide, etoposide], the IC50 was 12 µM in the data set on U937 cells [1] (U937, 4 hr, read-out: IC50 Value (minimal concentration to cause 50% DNA fragmentation)); 4 µM with U937 cells [1] (U937 on BSA, 4 h DNA fragmentation, read-out: IC50 Values); 15 µM in the data set with U937 cells [1] (U937 on FN, 4 h DNA fragmentation, read-out: IC50 Values); > 500 µM with U9-TR; > 500 µM with U9-NAD -; 26 µM in the data set on HL-60 neo. Also, the IC50 in the data set with HL-60 Bcl-2 is 380 µM; in the data set on U937 cells [2] (U937 + PMA (10 nM, 3 days)), 510 µM; in the data set on U937 cells [2] (U937), 4 µM; with MES-SA (parental), 59 µM; in the data set with MES-SA/Dx5 (MDR1 high), > 500 µM; in the data set on Hep3B (setting [3]), 210 µM. In addition, the IC50 in the data set on Hep3B (setting [4]) amounted to 840 µM; in the data set with Hep3B (setting [5]) it was 95 µM; with HepG2 (HepG2 (BSA) plate coating, read-out: IC50 Values) it was 35 µM; in the data set with HepG2 (HepG2, read-out: IC50 Values ± SEM (n)), 231 µM; in the data set on SK Hep-1, 58 µM. Besides, the “fold higher concentration to induce 50% DNA fragmentation” value with U937 cells [1] (cells adhering to FN vs plated on BSA) is given as “about 5 fold”. Also, the “factor of resistance of PMA-treated cells” value in the data set with U937 cells [2] (PMA-treated vs normal U937) was determined as 127 fold.

Take `O=c1[nH]cc(F)c(=O)[nH]1` [5-FU, 5-fluorouracil]: the IC50 is 490 µM in the data set with Hep3B (setting [3]); > 2 µM in the data set with Hep3B (setting [4]); 410 µM with Hep3B (setting [5]); 515 µM in the data set with HepG2 (setting [6]); > 2 µM in the data set with HepG2 (setting [7]); 620 µM in the data set on HepG2 (setting [8]). Further, the IC50 with SK Hep-1 was 203 µM.

As for `COc1cccc2c1C(=O)c1c(O)c3c(c(O)c1C2=O)C[C@@](O)(C(=O)CO)C[C@@H]3O[C@H]1C[C@H](N)[C@H](O)[C@H](C)O1` [Dox, doxorubicin], the IC50 in the data set with Hep3B (setting [3]) is 86 µM; in the data set on Hep3B (setting [4]), > 400 µM; in the data set with Hep3B (setting [5]) it was 80 µM; with HepG2 (setting [6]) it was 104 µM; with HepG2 (setting [7]), > 400 µM; with HepG2 (setting [8]), 122 µM. Also, the IC50 in the data set on SK Hep-1 was found to be 73 µM.

B1: MDH derived from porcine heart mitochondria: commercial preparation of mitochondrial malate dehydrogenase (Worthington Enzymes) (protein, UniProt P00346 25-338, looked up)
Malate dehydrogenase, …: AKVAVLGASGGIGQPLSLLLKNSPLVSRLTLYDIAHTPGVAADLSHIETRATVKGYLGPEQLPDCLKGCDVVVIPAGVPRKPGMTRDDLFNTNATIVATLTAACAQHCPDAMICIISNPVNSTIPITAEVFKKHGVYNPNKIFGVTTLDIVRANAFVAELKGLDPARVSVPVIGGHAGKTIIPLISQCTPKVDFPQDQLSTLTGRIQEAGTEVVKAKAGAGSATLSMAYAGARFVFSLVDAMNGKEGVVECSFVKSQETDCPYFSTPLLLGKKGIEKNLGIGKISPFEEKMIAEAIPELKASIKKGEEFVKNMK
For B1, the “concentrations dose-dependently inducing nuclear DNA fragmentation” value in the data set on isolated U937 nuclei (isolated nuclei) lay within 2 to 10 µg/mL.

B2: rADF: recombinant human activator of DNA fragmentation, 9 kDa C-terminal fragment of mitochondrial MDH, SEQ ID NO:7 (protein, listed as Homo sapiens)
chain: KAKAGAGSATLSMAYAGARFVFSLVDAMNGKEGVVECSFVKSQETECTYFSTPLLLGKKGIEKNLGIGKVSSFEEKMISDAIPELKASIKKGEDFVKTLK
As to B2, in the data set with isolated U937 nuclei (agarose gel, 4 h), the “internucleosomal DNA fragmentation” value is on record as “induced internucleosomal DNA fragmentation”. In addition, the “activation of nuclear DNA fragmentation” value with isolated U937 nuclei (nuclei from U937 cells, four h assay) is recorded as “dose-dependent activation”; with isolated MCF-7 nuclei, “dose-dependent activation”. For the same molecule, the “DNase activity on naked DNA of extracts from treated nuclei” value with naked DNA (U937 nuclei incubated with rADF 20 h) is reported as “digested naked DNA”. In the data set on naked DNA (rADF without nuclei), the “digestion of naked DNA by rADF itself” value is given as “did not digest naked DNA; also recorded: little or no activity”. Besides, the ICAD/DFF45 cleavage entry with ICAD/DFF45 is listed as “not cleaved”. In addition, the “DNA fragmentation activity at the same concentrations” value in the data set with U937 cells [1] (2.25-9 nM, 4 h assay) was “little activity”.

The values are drawn from patent US20040191843A1, “Cell-killing molecules and methods of use thereof” (Palo Alto Institute of Molecular Medicine, priority 2003, published 2004).
